Laboratory results from patent EP3057950B1, “PHENYL LINKED QUINOLINYL MODULATORS OF ROR-GAMMA-T” (Janssen Pharmaceutica NV, priority 2013, dated 2015).
Structures can show the parent of a compound that is named as a salt.

Experiments:
[1] = target: T1, wild type human RORγt ligand binding domain (RORγt LBD) (Homo sapiens, UniProt P51449); assay: RORγt ThermoFluor® Assay (thermal shift, binding affinity); details: pH 7.0, estimated from concentration response curves
T1 construct: His-tag (N); TurboTEV protease cleavage site (ENLYFQG) (N); made in house; host or cells: E. coli (pHIS1, modified pET expression vector)
T1 sequence (P51449 269-508 limits assumed): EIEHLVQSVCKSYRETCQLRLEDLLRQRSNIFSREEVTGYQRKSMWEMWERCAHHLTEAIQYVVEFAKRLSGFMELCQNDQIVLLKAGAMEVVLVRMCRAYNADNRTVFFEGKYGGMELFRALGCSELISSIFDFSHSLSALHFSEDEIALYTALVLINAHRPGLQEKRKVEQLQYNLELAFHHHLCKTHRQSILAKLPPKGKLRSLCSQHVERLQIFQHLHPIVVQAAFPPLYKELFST
Procedure: This approach is applicable to a wide variety of systems, and rigorous in theoretical interpretation through quantitation of equilibrium binding constants (KD).
The shift in the melting point described as a ΔTm is proportional to the concentration and affinity of the ligand.
Protein and compound solutions are dispensed into black 384-well polypropylene PCR microplates (Abgene) and overlayed with silicone oil (1 µL, Fluka, type DC 200) to prevent evaporation.
Bar-coded assay plates are robotically loaded onto a thermostatically controlled PCR-type thermal block and then heated at a typical ramp-rate of 1 °C/min for all experiments. Fluorescence was measured by continuous illumination with UV light (Hamamatsu LC6) supplied via fiber optic and filtered through a band-pass filter (380-400 nm; >6 OD cutoff). Fluorescence emission of the entire 384-well plate was detected by measuring light intensity using a CCD camera (Sensys, Roper Scientific) filtered to detect 500 ± 25 nm, resulting in simultaneous and independent readings of all 384 wells. Images were collected at each temperature, and the sum of the pixel intensity in a given area of the assay plate was recorded versus temperature. Reference wells contained RORγt without compounds, and the assay conditions were as follows: • 0.065 mg/mL RORγt • 60 µM 1,8-ANS • 100 mM Hepes, pH 7.0 • 10 mM NaCl • 2.5 mM GSH • 0.002% Tween-20
Project compounds were arranged in a pre-dosed mother plate (Greiner Bio-one) wherein compounds are serially diluted in 100% DMSO by 1:2 from a high concentration of 10 mM over 12 columns within a series (column 12 is a reference well containing DMSO, no compound). The compounds were robotically dispensed directly into assay plates (1x = 46 nL) using a Hummingbird capillary liquid handling instrument (Digilab). Following compound dispense, protein and dye in buffer was added to achieve the final assay volume of 3 µL, followed by 1 µL of silicone oil.

[2] = target: T2, wild type human RORγt LBD (Homo sapiens, UniProt P51449); assay: RORγt Reporter Assay (GAL4-RORγt LBD luciferase in HEK293T cells); assay type: cell-based; details: HEK293T cells; for IC50: compounds for 24 hours, read-out: RORγt reporter Assay, IC50; for inhibition at 6 µM: HEK-293T, read-out: RORγt reporter Assay, % inhibition @ 6 µM, @ 6 µM
T2 construct: expressed in transfected cells; host or cells: HEK293T
T2 sequence (P51449 269-508 limits assumed): T1 sequence (P51449 269-508 limits assumed)
Source text: A reporter assay was used to test functional activity of RORγt modulatory compounds on transcriptional activation driven by the RORγt LBD. Cells used in the assay were co-transfected with two constructs. The first construct, pBIND-RORγt LBD, contained the wild type human RORγt LBD fused to the DNA binding domain of the GAL4 protein. The second construct, pGL4.31 (Promega Cat no. C935A), contained multiple GAL4 responsive DNA elements upstream of firefly luciferase. […] The mutant construct was called pBIND-RORγt-AF2.
The pBIND vector contains the GAL4 DNA Binding Domain (GAL4 DBD) and the renilla luciferase gene under control of the SV40 promoter. Renilla luciferase expression serves as a control for transfection efficiency and cell viability.
The reporter assay was performed by transiently transfecting HEK293T cells with 5 µg of pBIND-RORγt LBD or pBIND-RORγt LBD-AF2 and 5 µg pGL4.31 (Promega Cat no. C935A) using Fugene 6 (Invitrogen Cat no. E2691) at a 1:6 ratio of DNA: Fugene 6 in a T-75 flask in which cells were at least 80% confluent. Twenty four hours after bulk transfection, cells were plated into 96-well plates at 50,000 cells/well in phenol-red free DMEM containing 5% Lipid Reduced FCS and Pen/Strep. Six hours after plating, cells were treated with compounds for 24 hours. Media was removed and cells were lysed with 50 µL 1x Glo Lysis Buffer (Promega). Dual Glo Luciferase Reagent (50 µL/well) was then added and firefly luciferase luminescence was read on an Envision after a ten minute incubation. Finally, Stop and Glo reagent (50 µL/well) was added and renilla luciferase luminescence was read on an Envision instrument after a ten minute incubation. To calculate the effect of compounds on RORγt activity, the ratio of firefly to renilla luciferase was determined and plotted against compound concentration. Agonist compounds increase RORγt-driven luciferase expression, and antagonist or inverse agonist compounds decrease luciferase expression.

Kd [1] [µM]	RORγt reporter Assay, % inhibition @ 6 µM [2] [%]	IC50 [2] [µM]	inhibition at 6 µM [2] [%]	Structure (SMILES)
14	40	> 6		Cn1cncc1C(O)(c1ccc2nc(C#N)c(-c3ccccc3)c(C#N)c2c1)c1ccccn1 (single isomer, unassigned) [Example 18b, 6-(Hydroxy(1-methyl-1H-imidazol-5-yl)(pyridin-2-yl)methyl)-3-phenylquinoline-2,4-dicarbonitrile]
0.33	95	0.85		Cn1cncc1C(O)(c1ccc2nc(C#N)c(-c3ccccc3)c(C#N)c2c1)c1ccccn1 (single isomer, unassigned) [Example 18c, 6-(Hydroxy(1-methyl-1H-imidazol-5-yl)(pyridin-2-yl)methyl)-3-phenylquinoline-2,4-dicarbonitrile]
0.017	35	> 6		COc1nc2c(C)cc(C(O)(c3ccc(C(F)(F)F)nc3)c3cncn3C)cc2c(C#N)c1-c1ccc(OC(F)(F)F)cc1 (single isomer, unassigned) [Example 19c, 6-(Hydroxy(1-methyl-1H-imidazol-5-yl)(6-(trifluoromethyl)pyridin-3-yl)methyl)-2-methoxy-8-methyl-3-(4-(trifluoromethoxy)phenyl)quinoline-4-carbonitrile]
1.3		1.6	87	CC(=O)N1CCC(C(O)(c2ccccc2)c2cc(C)c3nc(C#N)c(-c4ccccc4)c(C#N)c3c2)CC1 (single isomer, unassigned) [Example 21b, 6-((1-Acetylpiperidin-4-yl)(hydroxy)(phenyl)methyl)-8-methyl-3-phenylquinoline-2,4-dicarbonitrile]
15	60	~4		Cc1cc(C(O)(c2ccc(Cl)cc2)c2cncn2C)cc2c(C#N)c(-c3ccccc3)c(C#N)nc12 (single isomer, unassigned) [Example 23b, 6-((4-Chlorophenyl)(hydroxy)(1-methyl-1H-imidazol-5-yl)methyl)-8-methyl-3-phenylquinoline-2,4-dicarbonitrile]
3.5		~2	87	Cc1cc(C(O)(c2ccc(C(F)(F)F)nc2)c2cncn2C)cc2c(C#N)c(-c3ccccc3)c(C#N)nc12 (single isomer, unassigned) [Example 25b, 6-(Hydroxy(1-methyl-1H-imidazol-5-yl)(6-(trifluoromethyl)pyridin-3-yl)methyl)-8-methyl-3-phenylquinoline-2,4-dicarbonitrile]
15		~4	80	CC(=O)N1CCC(C(O)(c2ccc(C(F)(F)F)nc2)c2cc(C)c3nc(C#N)c(-c4ccccc4)c(C#N)c3c2)CC1 (single isomer, unassigned) [Example 27b, 6-((1-Acetylpiperidin-4-yl)(hydroxy)(6-(trifluoromethyl)pyridin-3-yl)methyl)-8-methyl-3-phenylquinoline-2,4-dicarbonitrile]
0.82	96	2.1		CC(=O)N1CCC(C(O)(c2ccc(C(F)(F)F)nc2)c2cc(C)c3nc(C#N)c(-c4ccccc4)c(C#N)c3c2)CC1 (single isomer, unassigned) [Example 27c, 6-((1-Acetylpiperidin-4-yl)(hydroxy)(6-(trifluoromethyl)pyridin-3-yl)methyl)-8-methyl-3-phenylquinoline-2,4-dicarbonitrile]
0.77		1.2	92	COc1c(-c2ccccc2)c(C(F)(F)F)nc2ccc(C(O)(c3ccccn3)c3cncn3C)cc12 (single isomer, unassigned) [Example 32b, (4-Methoxy-3-phenyl-2-(trifluoromethyl)quinolin-6-yl)(1-methyl-1H-imidazol-5-yl)(pyridin-2-yl)methanol]
13	64	~4		COc1c(-c2ccccc2)c(C(F)(F)F)nc2ccc(C(O)(c3ccc(Cl)cc3)c3cncn3C)cc12 (single isomer, unassigned) [Example 33b, (4-Chlorophenyl)(4-methoxy-3-phenyl-2-(trifluoromethyl)quinolin-6-yl)(1-methyl-1H-imidazol-5-yl)methanol]
0.45		1	90	CC(=O)N1CCC(C(O)(c2ccc3nc(C(F)(F)F)c(-c4ccccc4)c(Cl)c3c2)c2cncn2C)CC1 (single isomer, unassigned) [Example 34b, 1-(4-((4-Chloro-3-phenyl-2-(trifluoromethyl)quinolin-6-yl)(hydroxy)(1-methyl-1H-imidazol-5-yl)methyl)piperidin-1-yl)ethanone]
			97	COc1c(-c2ccccc2)c(Cl)nc2ccc(C(O)(c3cnnn3C)c3cnc(C)n3C)cc12 (single isomer, unassigned) [Example 40b, (2-Chloro-4-metboxy-3-phenylquinolin-6-yl)(1,2-dimethyl-1H-imidazol-5-yl)(1-methyl-1H-1,2,3-triazol-5-yl)methanol]
0.93		~2	80	Cc1nc(C)c(C(O)(c2ccc3nc(C#N)c(-c4ccccc4)c(C#N)c3c2)c2cnnn2C)s1 (single isomer, unassigned) [Example 47b, 6-((2,4-Dimethylthiazol-5-yl)(hydroxy)(1-methyl-1H-1,2,3-triazol-5-yl)methyl)-3-phenylquinoline-2,4-dicarbonitrile]
0.9		~2	87	COc1nc2ccc(C(O)(c3ncccn3)c3cncn3C)cc2c(Cl)c1-c1ccccc1 (single isomer, unassigned) [Example 60b, (4-Chloro-2-methoxy-3-phenylquinolin-6-yl)(1-methyl-1H-imidazol-5-yl)pyrimidin-2-ylmethanol]
0.0072				COCCN(C)c1nc2ccc(C(O)(c3ccc(C(F)(F)F)nc3)c3cncn3C)cc2c(Cl)c1-c1ccccc1 (centres unmarked) [Example 53, {4-Chloro-2-[(2-methoxyethyl)(methyl)amino]-3-phenylquinolin-6-yl}(1-methyl-1H-imidazol-5-yl)[6-(trifluoromethyl)pyridin-3-yl]methanol]
			98	CON(C)c1nc2ccc(C(O)(c3ccc(Cl)cc3)c3cncn3C)cc2c(N(C)OC)c1-c1ccccc1 (centres unmarked) [Example 59, {2,4-Bis[methoxy(methyl)amino]-3-phenylquinolin-6-yl}(4-chlorophenyl)(1-methyl-1H-imidazol-5-yl)methanol]
17				CC(C)Oc1nc2ccc(C(O)(c3cccnc3)c3cccc(Cl)c3)cc2cc1-c1ccccc1 (centres unmarked) [Example 79, (3-Chlorophenyl)(2-isopropoxy-3-phenylquinolin-6-yl)(pyridin-3-yl)methanol•TFA]
14				CCOc1nc2ccc(C(O)(c3cccnc3)c3cccc(Cl)c3)cc2c(OCC)c1-c1ccccc1 (centres unmarked) [Example 81, (3-Chlorophenyl)(2,4-diethoxy-3-phenylquinolin-6-yl)(pyridin-3-yl)methanol•TFA]
